One series concerns complementary DNA. Briefly: Melting temperature (Tm) of PNA with complementary DNA. It counts as binding. As to conditions: 140 mM KCl, 10 mM sodium dihydrogen phosphate, 0.1 mM EDTA (pH 7.4); oligomer 0.5 to 1 OD260 per ml. On the procedure: (§1) The melting temperatures were determined using an HP 8452A diode-array spectrophotometer, an HP 89090A Peltier element, and HP Temperature Control Software Rev. B5.1 (from Hewlett Packard). Measurements were taken in 0.5° C./min steps in 140 mM KCl, 10 mM sodium dihydrogen phosphate, 0.1 mM EDTA (pH 7.4) as the buffer. The oligomer concentration was from 0.5 to 1 OD260 per ml.

The test system of a further series is complementary RNA. Put plainly: Melting temperature (Tm) of PNA with complementary RNA. As to conditions: 140 mM KCl, 10 mM sodium dihydrogen phosphate, 0.1 mM EDTA (pH 7.4); oligomer 0.5 to 1 OD260 per ml. It counts as binding. On the procedure: as §1
A further series relates to REH cells. Briefly: Inhibiting cell proliferation (cell density). Format: cell-based, human. As to conditions: 10 μM. On the procedure:
The sequence of PNA-13 is directed against the translation start of the Ha-ras mRNA. REH cells (human pre-B leukemia cells, DSM ACC 22) or A549 tumor cells were cultured, at 37° C. and under 5% CO2, in OptiMEM (Gibco BRL) containing 10% fetal calf serum (FCS, GIBCO-BRL). The cell density for the assay was approx. 1×10^6/ml. The PNA-13 (10 μM) was incubated with the cells in 24-well plates. After incubating at 37° C. and under 5% CO2 for 96 hours, the cell density was determined. Mean values for the cell density were determined from 3 individual wells at a given PNA concentration.

The next series concerns COS cells. Put plainly: Cell uptake after fluorescence labeling (fluorescence microscopy). It counts as cell-based. The note with it: PNA solution 10 μM, 37° C., examined after 2, 4 and 16 hours, C-terminally fluorescein-labeled, compared with labeled PNA-6. On the procedure: COS cells were allowed to grow to confluence in Dulbecco's MEM (DMEM), which had been supplemented with 10% FCS, in 5 cm Petri dishes. The cells were washed twice with serum-free DM EM. An area of approx. 1 cm^2 was scratched out in the middle of the Petri dish using a sterile needle. The PNA solution (10 μM) under investigation was applied in this area. The dish was incubated at 37° C. under a CO2 atmosphere. After 2, 4, and 16 hours, the cells were examined by fluorescence microscopy. For this, the cells were washed four times with serum-free DM EM, covered with a cover slip, and evaluated under the fluorescence microscope or by phase contrast.
In order to investigate the cell uptake, PNA-6 and PNA-13 were labeled as indicated directly below with fluorescein at the C terminus and then examined microscopically.

For the substance “Ac-HN-tat tcc gtc at-hex [Reference, reference compound]”, in the series with complementary DNA, the “Tm (DNA)” value was determined as 41.9 °C. In the series on complementary RNA, the “Tm (RNA)” value was 56.6 °C.

Regarding “Biotin-p-{t(oeg) at tcc gtc at}-hex [PNA-12]”, in the series on complementary DNA, the “Tm (DNA)” value was found to be 43.6 °C. Besides, in the series on complementary RNA, the “Tm (RNA)” value amounted to 57.9 °C.

As to “Fluorescein-p-{t(oeg) at tcc gtc at}-hex (TATTCCGTCAT; chemistry not fully specified) [PNA-14]”, the “Tm (DNA)” value with complementary DNA was found to be 42.5 °C. For the same substance, in the series with complementary RNA, the “Tm (RNA)” value was found to be 56.7 °C.

Consider “Hexadecyl-O-p-{t(oeg) at tcc gtc at}-hex (TATTCCGTCAT; chemistry not fully specified) [PNA-13]”, for which the “inhibition of cell proliferation” value in the series on REH cells (96 hours, 37° C., 5% CO2) is “inhibits proliferation of the REH cells”. In the series with REH cells (after >4 days of incubation), the “inhibition of proliferation compared with a corresponding phosphorothioate oligonucleotide” value is “greater than that brought about by a corresponding phosphorothioate oligonucleotide”. The cell uptake entry with COS cells is given as “taken up more efficiently into the cells”. In addition, the “Tm (DNA)” value in the series on complementary DNA came out at 46.7 °C. Further, the “Tm (RNA)” value with complementary RNA stood at 58.9 °C.

Take “Phosphate-{t(oeg)-at tcc gtc at}-hex (TATTCCGTCAT; chemistry not fully specified) [PNA-6]”: in the series on complementary DNA, the “Tm (DNA)” value was determined as 44.0 °C. The “Tm (RNA)” value with complementary RNA amounted to 57.5 °C.
